{
  "source": "patent US11092602B2",
  "about": "“Methods and compositions relating to proteasome inhibitor resistance” (Whitehead Institute for Biomedical Research, priority 2015, dated 2021)",
  "type_in_all_cases": "cell-based, human",
  "key": {"T47D cells [1]": {"tested_on": "T47D cells", "assay": "Cell viability of T47D cells with doxycycline-inducible PSMD2 shRNA", "description": "T47D cells harboring a doxycycline inducible control shRNA (GFP) or a doxycycline-inducible PSMD2 shRNA (TurboRFP) were incubated with doxycycline for 3 days. Cells were then split and grown in the absence of Dox and proteasome inhibitors were then added at various concentrations. Cells were maintained in culture and then counted.\nFor the generation of the T47D Tet-inducible PSMD2 knockdown cell line—the TRIPZ vector with an inducible shRNA targeting PSMD2 was purchased from Dharmacon (clone V3THS_403760). It was introduced to the T47D cells according to manufactures protocol and cells were selected with puromycin 1 μg/ml for one week. The cells were exposed to doxycycline for 24 hours and cells were FACS sorted for the top 10% of most RFP expressing cells (highest expression of shRNA). The cells were further cultured in the absence of doxycycline and PSMD2 knockdown was induced as specified in the relevant Examples."}, "[2]": {"tested_on": "protein degradation and protein synthesis", "assay": "Translation and degradation assays (3H-phenylalanine)", "settings": "10 nM bortezomib", "protocol": "Next we examined the impact of reducing PSMD2 levels on protein degradation and protein synthesis. Cells were labeled with tritiated-phenylalanine for 24 hrs. We then separately measured the rates at which labeled proteins were degraded through the proteasome and through the lysosome.\nTo measure rates of protein synthesis, cells were pulse labeled with tritiated-phenylalanine for 1 hr.\nFor measuring overall rate of synthesis, cells were pretreated with 10 nM Bortezomib for 20 hours, then incorporation of ^3H-phenylalanine was measured for 1 h. The rate of synthesis was described as counts incorporated into cell proteins per hour and per μg of total cell proteins. When working with T47D cells, knockdown of PSMD2 was induced for 3 days with doxycycline before bortezomib treatment. For measuring overall rates of protein degradation, pulse-labeling with ^3H-phenylalanine for 24 hours was done before the bortezomib treatment as previously described (Zhao et al., 2007)."}, "T47D cells [3]": {"tested_on": "T47D cells", "assay": "Selleck anti-cancer compound library screen, PSMD2 KD versus control T47D cells (resazurin)", "settings": "4 concentrations, 72 hours", "protocol": "After 48 hours the cells were collected, counted, and plated at 1000 cells/well in 384 well plates in duplicates for each cell line. Compounds from the Selleck Chemicals anti-cancer compound library β49 drugs in 4 concentrations; […]) were pinned the next day and viability was measured after 72 hours by the reduction of Resazurin (Ex=530 nm, Em=590 nm).\nThe effect of each drug on viability of cells was calculated by averaging the duplicate experiments. The data is plotted in FIG. 16 as the log2 of the ratio of viability of PSMD2 KD versus control cells (log2 (shPSMD2/Control))."}, "HepG2 cells": {"tested_on": "HepG2 cells", "assay": "Cell viability assay (resazurin) in HepG2 cells expressing proteasome subunit shRNAs", "text": "Next, we asked if a simple reduction in the expression of 19S subunits could protect against the toxicity of proteasome inhibitors. We assembled a panel of shRNA-expressing lentiviruses targeting seventeen 19S subunits and three 20S subunits (PSMB5, PSMB7 and PSMA3). Each gene was targeted separately using four different shRNAs (FIG. 2, Table S2) and we averaged the effects on viability from these four hairpins.\nFor the analysis of multiple proteasome subunit knockdown 80 shRNA targeting 20 proteasome subunits (4 different shRNAs) and 13 control shRNAs (Table S2) in pLKO lentiviral vectors from the RNAi consortium shRNA library were utilized. Cells were plated in 96 wells with the volume of 100 μL media at the concentration of 2500 cells/well. 24 hours after plating media was discarded and 50 μl with 7.5-10 μg/μ1 of polybrene and 7 μl of purified virus was added. After incubation for 24 hours the media was discarded and 200 μl of fresh media with 1 μg/ml puromycin was added. Bortezomib was added where specified. pLKO lentiviral vectors from the RNAi consortium shRNA library targeting the PSMC5 and PSMD2 (Table 2) were further used to create HepG2 and T47D stably overexpressing these shRNAs by selection with puromycin 1 μg/ml for one week.\nRelative cell growth and survival were measured in 96-well microplate format in the shRNA experiments and in 384 well format in the drug toxicity assays, by using the fluorescent detection of resazurin dye reduction as an endpoint (544 nm excitation and 590 nm emission). 2,500 cells in 96 wells format or 1,000 cells in 384 well format were plated 24 hours before compound exposure (for 72 hours or indicated time). Each analysis was performed at least with three replicas."}, "[4]": {"settings": "cells with transiently reduced PSMD2, 20 hours"}},
  "note": "“Also recorded” adds a separate entry of the source.",
  "data": [
    {"smiles": "CC(C)C[C@H](NC(=O)[C@H](Cc1ccccc1)NC(=O)c1cnccn1)B(O)O", "note": "[bortezomib]", "values": [
      {"measurement": "resistance upon doxycycline-induced reduction of PSMD2", "setting": "T47D cells [1]; PSMD2 shRNA versus control", "result": "significantly increased resistance; also recorded: increase in resistance"},
      {"measurement": "resistance of cells harboring the PSMD2 shRNA versus parental line (EC50)", "setting": "T47D cells [1]; doxycycline 3 days, 96 hour culture", "result": "considerably more resistant"},
      {"measurement": "rates of proteolysis by the lysosome", "setting": "[2]; 20-hour treatment", "result": "remained unchanged"},
      {"measurement": "inhibition of proteasome degradation", "setting": "[2]; [4]", "result": "strongly counteracted"},
      {"measurement": "suppression of protein synthesis", "setting": "[2]; [4]", "result": "strongly counteracted"},
      {"measurement": "rate of protein degradation", "setting": "[2]; control cells, 20-hour treatment", "result": "sharply decreased"},
      {"measurement": "rate of protein synthesis", "setting": "[2]; control cells, 20 hours", "result": "sharply decreased"},
      {"measurement": "selective effect on viability, PSMD2 KD versus control cells (log2 (shPSMD2/Control))", "setting": "T47D cells [3]", "result": "selectively reduce viability of control cells versus PSMD2 KD cells"},
      {"measurement": "proliferation of lines stably expressing shRNA targeting PSMC5 or PSMD2", "setting": "HepG2 cells; HepG2, 12 nM bortezomib", "result": "continued proliferating"},
      {"measurement": "concentration of bortezomib that completely inhibited the proliferation of control cells", "setting": "HepG2 cells; HepG2 control cells", "result": 12, "unit": "nM"},
      {"measurement": "EC50 values increased versus parental line", "setting": "HepG2 cells; HepG2 lines with shRNA-driven modest reduction in PSMD2, 4 days", "result": "three to six"}
    ]}
  ]
}
